Experimental data published in patent US5137811A, “Method for diagnosing periodontal diseases with a substrate specific for aminopeptidase activity of periodontopathic bacteria” (Sunstar Kabushiki Kaisha, priority 1986, dated 1992).
Where a SMILES comes first, the peptide text is derived from it. The star is where a group is joined. βNA = c1ccc2cc(N*)ccc2c1; Cbz = O=C(OCc1ccccc1)*

Legend:
[1] = test system: Actinobacillus actinomycetemcomitans; test: Hydrolytic activity of oral anaerobe cell suspension on aminopeptidase substrates (Experiment 1); format: cell-based; settings: four strains, substrate 0.2 mM, pH 7.0, 37° C., 60 minutes, Table 1
Method in brief: (§1)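 Treponema grown anaerobically in TYGVS (37 °C, 7 days) and other strains in brain heart infusion (37 °C, 48–72 h), then diluted to A660 1.0. Cells reacted 60 min at 37 °C with β-naphthylamine-derived substrates (0.2 mM solution, 0.1 M Tris-HCl pH 7.0). Garnet GBC coupling, A525 after 15 min; activity graded from mean released β-naphthylamine per strain.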

Bacteroides gingivalis = test: as above; format: cell-based; settings: five strains, substrate 0.2 mM, pH 7.0, 37° C., 60 minutes, Table 1
Method in brief: as §1

Capnocytophaga sp. = test: as above; format: cell-based; settings: four strains, substrate 0.2 mM, pH 7.0, 37° C., 60 minutes, Table 1
Method in brief: as §1

Fusobacterium nucleatum [2] = test: as above; format: cell-based; settings: three strains, substrate 0.2 mM, pH 7.0, 37° C., 60 minutes, Table 1
Method in brief: as §1

Treponema denticola [3] = test: as above; format: cell-based; settings: four strains, substrate 0.2 mM, pH 7.0, 37° C., 60 minutes, Table 1
Method in brief: as §1

[4] = test system: Actinobacillus actinomycetemcomitans; test: Hydrolytic activity of cell suspension, substrates alone or in combination (Experiment 3); format: cell-based; settings: four strains, Table 3
Experimental: (§2) The strains of Treponema were anaerobically cultivated using TYGVS media at 37° C. for 7 days, while other bacterial strains were cultivated using brain heart infusion broth at 37° C. for 48 to 72 hours. Each culture was diluted to obtain a bacterial cell suspension, the absorption at 660 nm of which was 1.0.
(§3) Substrate compounds for aminopeptidase enzyme having various color developing groups derived from β-naphthylamine were dissolved in 0.1M Tris-HCl buffer (pH 7.0) at the concentration of 0.2 mM to obtain substrate solutions.
(§4) To the substrate solution (1.5 ml) was added the above cell suspension (0.3 ml) and reacted at 37° C. for 60 minutes. After completion of the reaction, a coloring reagent [prepared by dissolving diazonium salt of Garnet GBC in 1M acetate buffer (containing 10% Tween 20, pH: 4.2) at the concentration of 0.5 mg/ml] was added and, after 15 minutes, the absorption at 525 nm was determined with a spectrophotometer.
(§5) On the basis of the average amount of released β-naphthylamine in each strain, the hydrolytic activity was expressed as follows: […]
(§6) According to the same manner as described in Experiment 1, periodontopathic bacteria specific aminopeptidase activity was tested by using four strains of Treponema denticola, five strains of B. gingivalis, four strains of Actinobacillus actinomycetemcomitans, two strains of Actinomyces israelli and three strains of Fusobacterium nucleatum. Abbreviations in Table 3 are the same as those in Tables 1 and 2. Hydrolytic activity "+++" means "40≤release amount<80 nmol/ml" and "++++" means "release amount≥80 nmol/ml".

Actinomyces israelli = test: as above; format: cell-based; settings: two strains, Table 3
Experimental: as §2, §3, §4, §5, §6

B. gingivalis = test: as above; format: cell-based; settings: five strains, Table 3
Experimental: as §2, §3, §4, §5, §6

Fusobacterium nucleatum [5] = test: as above; format: cell-based; settings: three strains, Table 3
Experimental: as §2, §3, §4, §5, §6

Treponema denticola [6] = test: as above; format: cell-based; settings: four strains, Table 3
Experimental: as §2, §3, §4, §5, §6

[7] = test system: periodontopathic bacteria specific aminopeptidase activity; test: Hydrolytic activity of gingival crevicular fluid specimens, visually evaluated (Experiment 4); format: biochemical; parameters: key: -: orange; +: dark orange; ++: brown; +++: dark brown
Experimental: as §3, §4
(§7) Specimens of gingival crevicular fluid were collected with paper points from five subjects who were considered to be healthy from their clinical state, six subjects with gingivitis and six subjects with periodontitis. Each specimen was dispersed in Ringer's solution (1.5 ml), and the relative amount of spirochete to total bacteria: [formula] was determined with a phase contrast microscope. Further, the Ringer's solution (0.3 ml) was tested for hydrolytic activity using the substrate solution prepared in the same manner as described in Experiment 1. As substrates, there were used compounds of the formula [1], i.e., N-benzoylvalyl-glycyl-arginine-β-naphthylamide (BzVGR) and N-carbobenzoxy-valyl-glycyl-arginine-β-naphthylamide (CxVGR) were used.
In table 4, hydrolytic activity was visually evaluated and expressed as follows: […]

[8] = test system: periodontopathic bacteria specific aminopeptidase activity; test: Hydrolytic activity of gingival crevicular fluid specimens, OD525 (Experiment 6); format: biochemical
Experimental: as §3, §4, §7
According to the same manner as described in Experiment 4, hydrolytic activity was tested by using the compounds of the formulas and [2], i.e., glycyl-proline-βnaphthylamide (GP), N-benzoyl-arginyl-glycyl-phenylalanylproline-β-naphthylamide (BzRGFP), N-carbobenzoxy-valylglycyl-arginine-β-naphthylamide (CxVGR) and N-benzoylglycyl-arginine-β-naphthylamide (BzGR) alone or in combination. Hydrolytic activity was determined by measuring absorption at 525 nm (OD525) and expressed as follows.

[9] = test system: periodontopathic bacteria specific aminopeptidase activity; test: Hydrolytic activity of saliva supernatant (Experiment 7); format: biochemical; settings: 37° C. for 4 hours, Table 7
Experimental: as §7
(§8) A saliva mixture was collected from a group consisting of ten healthy subjects and centrifuged to obtain a supernatant. Likewise, centrifuged supernatants were obtained from a group of ten subjects with adult periodontitis and a group of four localized juvenile periodontitis. The supernatant was used as a specimen and its hydrolytic activity was determined according to the same manner as described in Experiment 4 except that the reaction was carried out at 37° C. for 4 hours. As the substrates, there were used N-carbobenzoxy-valyl-glycyl-arginine-p-nitrophenol (CxVGR-pNP), N-carbobenzoxy-valyl-glycylarginine-4-methoxy-2-naphthylamide (CxVGR-4NA) and N-carbobenzoxy-valyl-glycyl-arginine-β-naphthylamide (CxVGR-βNA). Color was developed by using lN sodium hydroxide for CxVGR-pNP and Fast Blue BB for CxVGR-4NA and CxVGR-βNA.

[10] = test system: periodontopathic bacteria specific aminopeptidase activity; test: Hydrolytic activity of saliva supernatant, substrates alone or in combination (Experiment 9); format: biochemical; settings: 37° C. for 4 hours, Table 9
Experimental: as §8
According to the same manner as described in Experiment 7, hydrolytic activity was tested by using N-carbobenzoxy-valyl-glycyl-arginine-β-naphthylamide (CxVGR-βNA), N-benzoyl-arginyl-glycyl-phenylalanyl-proline-β-naphthylamide (BzRGFP-βNA), N-carbobenzoxy-valyl-glycylarginine-p-nitrophenol (CxVGR-pNP) and N-benzoyl-arginylglycyl-phenylalanyl-proline-p-nitrophenol (BzRGFP-pNP) alone or in combination as the substrates.

[11] = Gingivitis subject 1 (spirochete 7.3 %)
[12] = Gingivitis subject 2 (spirochete 16.7 %)
[13] = Gingivitis subject 3 (spirochete 20.5 %)
[14] = Gingivitis subject 4 (spirochete 6.8 %)
[15] = Gingivitis subject 5 (spirochete 7.3 %)
[16] = Gingivitis subject 6 (spirochete 14.4 %)
[17] = Healthy subject 1 (spirochete 0.1 %)
[18] = Healthy subject 2 (spirochete 2.5 %)
[19] = Healthy subject 3 (spirochete 1.1 %)
[20] = Healthy subject 4 (spirochete 0.6 %)
[21] = Healthy subject 5 (spirochete 1.3 %)
[22] = Periodontitis subject 1 (spirochete 45.2 %)
[23] = Periodontitis subject 2 (spirochete 30.3 %)
[24] = Periodontitis subject 3 (spirochete 34.6 %)
[25] = Periodontitis subject 4 (spirochete 21.2 %)
[26] = Periodontitis subject 5 (spirochete 40.3 %)
[27] = Periodontitis subject 6 (spirochete 35.1 %)
[28] = Localized juvenile periodontitis subjects

hydrolytic activity, visually evaluated [7, 11]: + | hydrolytic activity, visually evaluated [7, 12]: + | hydrolytic activity, visually evaluated [7, 13]: ++ | hydrolytic activity, visually evaluated [7, 14]: - | hydrolytic activity, visually evaluated [7, 15]: - | hydrolytic activity, visually evaluated [7, 16]: + | hydrolytic activity, visually evaluated [7, 17]: - | hydrolytic activity, visually evaluated [7, 18]: + | hydrolytic activity, visually evaluated [7, 19]: - | hydrolytic activity, visually evaluated [7, 20]: - | hydrolytic activity, visually evaluated [7, 21]: - | hydrolytic activity, visually evaluated [7, 22]: +++ | hydrolytic activity, visually evaluated [7, 23]: +++ | hydrolytic activity, visually evaluated [7, 24]: +++ | hydrolytic activity, visually evaluated [7, 25]: +++ | hydrolytic activity, visually evaluated [7, 26]: +++ | hydrolytic activity, visually evaluated [7, 27]: +++ | hydrolytic activity, absorption at 525 nm (OD525) [8, 11]: + (0.1≤OD525 <0.2) | hydrolytic activity, absorption at 525 nm (OD525) [8, 12]: + (0.1≤OD525 <0.2) | hydrolytic activity, absorption at 525 nm (OD525) [8, 13]: ++ (0.2≤OD525 <0.4) | hydrolytic activity, absorption at 525 nm (OD525) [8, 14]: - (OD525 <0.1) | hydrolytic activity, absorption at 525 nm (OD525) [8, 15]: - (OD525 <0.1) | hydrolytic activity, absorption at 525 nm (OD525) [8, 16]: + (0.1≤OD525 <0.2) | hydrolytic activity, absorption at 525 nm (OD525) [8, 17]: - (OD525 <0.1) | hydrolytic activity, absorption at 525 nm (OD525) [8, 18]: + (0.1≤OD525 <0.2) | hydrolytic activity, absorption at 525 nm (OD525) [8, 19]: - (OD525 <0.1) | hydrolytic activity, absorption at 525 nm (OD525) [8, 20]: - (OD525 <0.1) | hydrolytic activity, absorption at 525 nm (OD525) [8, 21]: - (OD525 <0.1) | hydrolytic activity, absorption at 525 nm (OD525) [8, 22]: +++ (0.4≤OD525 <0.8) | hydrolytic activity, absorption at 525 nm (OD525) [8, 23]: +++ (0.4≤OD525 <0.8) | hydrolytic activity, absorption at 525 nm (OD525) [8, 24]: +++ (0.4≤OD525 <0.8) | hydrolytic activity, absorption at 525 nm (OD525) [8, 25]: +++ (0.4≤OD525 <0.8) | hydrolytic activity, absorption at 525 nm (OD525) [8, 26]: +++ (0.4≤OD525 <0.8) | hydrolytic activity, absorption at 525 nm (OD525) [8, 27]: +++ (0.4≤OD525 <0.8) | hydrolytic activity ([9]; Adult Periodontitis subjects): 35.6 ± 9.8 nmol/mL | hydrolytic activity ([9]; Healthy subjects): 16.1 ± 10.3 nmol/mL | hydrolytic activity [9, 28]: 33.4 ± 10.0 nmol/mL | hydrolytic activity ([10]; Adult Periodontitis subjects): 34.8 ± 10.2 nmol/mL | hydrolytic activity ([10]; Healthy subjects): 15.0 ± 8.8 nmol/mL | hydrolytic activity [10, 28]: 31.5 ± 9.8 nmol/mL
SMILES: CC(C)[C@H](NC(=O)OCc1ccccc1)C(=O)NCC(=O)N[C@@H](CCCNC(=N)N)C(=O)Nc1ccc2ccccc2c1 [CxVGR, N-carbobenzoxy-valyl-glycyl-arginine-β-naphthylamide] (Cbz-Val-Gly-Arg-βNA)
hydrolytic activity (average amount of released β-naphthylamine) [1]: - (release amount<5 nmol/ml) | hydrolytic activity (average amount of released β-naphthylamine) (Bacteroides gingivalis): +++ (release amount≥40 nmol/ml) | hydrolytic activity (average amount of released β-naphthylamine) (Capnocytophaga sp.): - (release amount<5 nmol/ml) | hydrolytic activity (average amount of released β-naphthylamine) (Fusobacterium nucleatum [2]): - (release amount<5 nmol/ml) | hydrolytic activity (average amount of released β-naphthylamine) (Treponema denticola [3]): +++ (release amount≥40 nmol/ml) | hydrolytic activity (release amount) [4]: - (release amount<5 nmol/ml) | hydrolytic activity (release amount) (Actinomyces israelli): - (release amount<5 nmol/ml) | hydrolytic activity (release amount) (B. gingivalis): +++ (40≤release amount<80 nmol/ml) | hydrolytic activity (release amount) (Fusobacterium nucleatum [5]): - (release amount<5 nmol/ml) | hydrolytic activity (release amount) (Treponema denticola [6]): +++ (40≤release amount<80 nmol/ml)
